Data taken from PMC7031696 (Cell chemical biology, 2019).

System: 3D7-MR4 trophozoite parasite-infected RBCs
Experiment: Metabolomic profiling (hydrophilic metabolite changes, UHPLC-MS)
Format: cell-based, Plasmodium falciparum

Ferroquine [reference compound]
changes within the set of metabolites detected (low fold change group) (10 × IC50^72h, 2.5 hr, trophozoites): did not induce major changes
Log2(fold changes) 1_3-Bisphosphoglyceric acid (metabolite 1_3-Bisphosphoglyceric acid, log2 fold change): 0.0000
Log2(fold changes) 2-Hydroxy-2-methylbutanedioic acid (metabolite 2-Hydroxy-2-methylbutanedioic acid, log2 fold change): -0.0247
Log2(fold changes) 2-Isopropylmalic acid (metabolite 2-Isopropylmalic acid, log2 fold change): 0.0000
Log2(fold changes) 2-dehydro-D-gluconate (metabolite 2-dehydro-D-gluconate, log2 fold change): -0.3147
Log2(fold changes) 2-oxo-4-methylthiobutanoate (metabolite 2-oxo-4-methylthiobutanoate, log2 fold change): 0.0000
Log2(fold changes) 2_3-Diphosphoglyceric acid (metabolite 2_3-Diphosphoglyceric acid, log2 fold change): -0.0833
Log2(fold changes) 3-phosphoglycerate (metabolite 3-phosphoglycerate, log2 fold change): 0.2090
Log2(fold changes) 3-phosphoserine (metabolite 3-phosphoserine, log2 fold change): 0.0000
Log2(fold changes) 4-Pyridoxic acid (metabolite 4-Pyridoxic acid, log2 fold change): 0.0751
Log2(fold changes) 4-aminobutyrate (metabolite 4-aminobutyrate, log2 fold change): 0.0759
Log2(fold changes) 4-phosphopantetheine (metabolite 4-phosphopantetheine, log2 fold change): 0.0000
Log2(fold changes) 4-phosphopantothenate (metabolite 4-phosphopantothenate, log2 fold change): 0.0213
Log2(fold changes) 5-aminopentanoic acid (metabolite 5-aminopentanoic acid, log2 fold change): 0.0000
Log2(fold changes) 5-methyl-THF (metabolite 5-methyl-THF, log2 fold change): 0.0000
Log2(fold changes) 5-phosphoribosyl-1-pyrophosphate (metabolite 5-phosphoribosyl-1-pyrophosphate, log2 fold change): 0.0000
Log2(fold changes) 6-phospho-D-gluconate (metabolite 6-phospho-D-gluconate, log2 fold change): 0.0000
Log2(fold changes) ADP-D-glucose (metabolite ADP-D-glucose, log2 fold change): 0.0625
Log2(fold changes) Acetyl-glycine (metabolite Acetyl-glycine, log2 fold change): 0.0000
Log2(fold changes) Acetyllysine (metabolite Acetyllysine, log2 fold change): 0.2432
Log2(fold changes) Aminoadipic acid (metabolite Aminoadipic acid, log2 fold change): 0.0000
Log2(fold changes) CDP (metabolite CDP, log2 fold change): -0.2924
Log2(fold changes) CDP-choline (metabolite CDP-choline, log2 fold change): 0.0000
Log2(fold changes) CDP-ethanolamine (metabolite CDP-ethanolamine, log2 fold change): 0.1904
Log2(fold change) of CMP (metabolite CMP): -0.0276
Log2(fold change) of CTP (metabolite CTP): 0.0362
Log2(fold changes) Citraconic acid (metabolite Citraconic acid, log2 fold change): 0.0302
Log2(fold change) of D-glucarate (metabolite D-glucarate): 0.4691
Log2(fold change) of D-gluconate (metabolite D-gluconate): 0.0000
Log2(fold change) of D-glucosamine-1/6-phosphate (metabolite D-glucosamine-1/6-phosphate): 0.0000
Log2(fold change) of D-sedoheptulose-1/7-phosphate (metabolite D-sedoheptulose-1/7-phosphate): -0.0036
Log2(fold change) of DL-Pipecolic Acid (metabolite DL-Pipecolic Acid): -0.1035
Log2(fold change) of DLH (metabolite DLH): 0.0094
Log2(fold change) of DLS (metabolite DLS): 0.0686
Log2(fold change) of Decanoyl-CoA (metabolite Decanoyl-CoA): 0.0000
Log2(fold change) of EV (metabolite EV): 0.0000
Log2(fold change) of FAD (metabolite FAD): 0.0236
Log2(fold change) of FMN (metabolite FMN): 0.1126
Log2(fold change) of G3P/DHAP (metabolite G3P/DHAP): 0.0000
Log2(fold change) of GDP (metabolite GDP): -0.2435
Log2(fold change) GMP (metabolite GMP): -0.0369
Log2(fold change) GTP (metabolite GTP): 0.0612
Log2(fold change) HVDD (metabolite HVDD): 0.0000
Log2(fold change) Hexose (metabolite Hexose): 0.9215
Log2(fold change) Hydroxyisocaproic acid (metabolite Hydroxyisocaproic acid): 0.0000
Log2(fold change) IDP (metabolite IDP): 0.0000
Log2(fold change) IMP (metabolite IMP): -0.0158
Log2(fold change) Inositol (metabolite Inositol): 0.0000
Log2(fold change) Isopentyl-PP (metabolite Isopentyl-PP): 0.0768
Log2(fold change) L-arginino-succinate (metabolite L-arginino-succinate): 0.0000
Log2(fold change) LD (metabolite LD): 0.1184
Log2(fold change) Myristoyl/tetradecanoyl-CoA (metabolite Myristoyl/tetradecanoyl-CoA): 0.0000
Log2(fold change) N-Acetyl-L-alanine (metabolite N-Acetyl-L-alanine): -0.1094
Log2(fold change) N-acetyl-L-ornithine (metabolite N-acetyl-L-ornithine): 0.3046
Log2(fold change) N-acetyl-glucosamine-1/6-phosphate (metabolite N-acetyl-glucosamine-1/6-phosphate): -0.0561
Log2(fold change) N-acetyl-glutamate (metabolite N-acetyl-glutamate): 0.1101
Log2(fold change) N-acetyl-glutamine (metabolite N-acetyl-glutamine): 0.0004
Log2(fold change) N-carbamoyl-L-aspartate (metabolite N-carbamoyl-L-aspartate): 0.0860
Log2(fold change) NAD+ (metabolite NAD+): 0.0993
Log2(fold change) NADH (metabolite NADH): 0.0000
Log2(fold change) NADP+ (metabolite NADP+): -0.0805
Log2(fold change) NADPH (metabolite NADPH): 0.9289
Log2(fold change) O-acetyl-L-serine (metabolite O-acetyl-L-serine): 0.0000
Log2(fold change) Octoluse 8/1P (metabolite Octoluse 8/1P): 0.1026
Log2(fold change) Octoluse Bisphosphate (metabolite Octoluse Bisphosphate): 0.0231
Log2(fold change) PD (metabolite PD): 0.1011
Log2(fold change) PE (metabolite PE): 0.0655
Log2(fold change) PEE (metabolite PEE): 0.0431
Log2(fold change) PEEK (metabolite PEEK): 0.3448
Log2(fold change) PVNF (metabolite PVNF): 0.0000
Log2(fold change) Pyroglutamic acid (metabolite Pyroglutamic acid): 0.1702
Log2(fold change) Pyrophosphate (metabolite Pyrophosphate): 0.0000
Log2(fold change) Ribose-5-phosphate (metabolite Ribose-5-phosphate): 0.0000
Log2(fold change) S-adenosyl-L-homocysteine (metabolite S-adenosyl-L-homocysteine): 0.0736
Log2(fold change) S-adenosyl-L-methioninamine (metabolite S-adenosyl-L-methioninamine): 0.0000
Log2(fold change) S-adenosyl-L-methionine (metabolite S-adenosyl-L-methionine): 0.0000
Log2(fold change) S-methyl-5'-thioadenosine (metabolite S-methyl-5'-thioadenosine): 0.0000
Log2(fold change) SD (metabolite SD): 0.1281
Log2(fold change) SDL (metabolite SDL): 0.2089
Log2(fold change) SID (metabolite SID): 0.0000
Log2(fold change) Sedoheptulose bisphosphate (metabolite Sedoheptulose bisphosphate): 0.0573
Log2(fold change) Thiamine pyrophosphate (metabolite Thiamine pyrophosphate): 0.0000
Log2(fold changes) UDP-D-glucose (metabolite UDP-D-glucose, log2 fold change): 0.0465
Log2(fold changes) UDP-D-glucuronate (metabolite UDP-D-glucuronate, log2 fold change): 0.0272
Log2(fold changes) UDP-N-acetyl-glucosamine (metabolite UDP-N-acetyl-glucosamine, log2 fold change): 0.0319
Log2(fold changes) UDP (metabolite UDP, log2 fold change): -0.2525
Log2(fold changes) UMP (metabolite UMP, log2 fold change): -0.0522
Log2(fold changes) UTP (metabolite UTP, log2 fold change): 0.1015
Log2(fold changes) VD (metabolite VD, log2 fold change): 0.1916
Log2(fold changes) Xanthurenic acid (metabolite Xanthurenic acid, log2 fold change): 0.0000
Log2(fold changes) a-ketoglutarate (metabolite a-ketoglutarate, log2 fold change): -0.2164
Log2(fold changes) acetyl-CoA (metabolite acetyl-CoA, log2 fold change): 0.0673
Log2(fold changes) acetyl-aspartate (metabolite acetyl-aspartate, log2 fold change): -0.0096
Log2(fold changes) acetylphosphate (metabolite acetylphosphate, log2 fold change): 0.0000
Log2(fold changes) aconitate (metabolite aconitate, log2 fold change): 0.0000
Log2(fold changes) adenine (metabolite adenine, log2 fold change): 0.0000
Log2(fold changes) adenosine 5'-phosphosulfate (metabolite adenosine 5'-phosphosulfate, log2 fold change): -0.1961
Log2(fold changes) adenosine (metabolite adenosine, log2 fold change): 0.0000
Log2(fold changes) alanine/sarcosine (metabolite alanine/sarcosine, log2 fold change): 0.0137
Log2(fold changes) anthranilate (metabolite anthranilate, log2 fold change): 0.0000
Log2(fold changes) arginine (metabolite arginine, log2 fold change): 0.0962
Log2(fold changes) asparagine (metabolite asparagine, log2 fold change): 0.2455
Log2(fold changes) aspartate (metabolite aspartate, log2 fold change): 0.0829
Log2(fold changes) biotin (metabolite biotin, log2 fold change): 0.0000
Log2(fold changes) cCMP (metabolite cCMP, log2 fold change): 0.0000
Log2(fold changes) cGMP (metabolite cGMP, log2 fold change): 0.0000
Log2(fold changes) carnitine (metabolite carnitine, log2 fold change): 0.0000
Log2(fold changes) citrate/isocitrate (metabolite citrate/isocitrate, log2 fold change): 0.0063
Log2(fold change) of coenzyme A (metabolite coenzyme A): 0.9119
Log2(fold change) of cyclic-AMP (metabolite cyclic-AMP): 0.1031
Log2(fold change) of cytidine (metabolite cytidine): 0.1024
Log2(fold change) of dAMP (metabolite dAMP): -0.3497
Log2(fold change) of dATP (metabolite dATP): 0.0366
Log2(fold change) of dCDP (metabolite dCDP): -0.2652
Log2(fold change) of dCMP (metabolite dCMP): -0.1471
Log2(fold change) of dCTP (metabolite dCTP): 0.0304
Log2(fold change) of dGDP/ADP (metabolite dGDP/ADP): -0.1961
Log2(fold change) of dGMP/AMP (metabolite dGMP/AMP): -0.3182
Log2(fold change) of dGTP/ATP (metabolite dGTP/ATP): 0.0666
Log2(fold change) of dTDP (metabolite dTDP): -0.3263
Log2(fold change) of dTMP (metabolite dTMP): -0.4999
Log2(fold change) of dTTP (metabolite dTTP): 0.0866
Log2(fold change) of dUMP (metabolite dUMP): 0.0000
Log2(fold change) of dUTP (metabolite dUTP): 0.0000
Log2(fold change) of deoxyguanosine (metabolite deoxyguanosine): 0.0000
Log2(fold change) of deoxyinosine (metabolite deoxyinosine): 0.0000
Log2(fold change) of deoxyribose-phosphate (metabolite deoxyribose-phosphate): 0.0000
Log2(fold change) of deoxyuridine (metabolite deoxyuridine): 0.0000
Log2(fold change) of dihydroorotate (metabolite dihydroorotate): 0.1627
Log2(fold change) of folate (metabolite folate): 0.1440
Log2(fold change) of fructose-1-6-bisphosphate (metabolite fructose-1-6-bisphosphate): 0.3162
Log2(fold change) of fructose-6-phosphate (metabolite fructose-6-phosphate): 0.3514
Log2(fold change) of fumarate (metabolite fumarate): -0.0660
Log2(fold change) of glucono-lactone (metabolite glucono-lactone): 0.0470
Log2(fold change) of glucose-1/6-phosphate (metabolite glucose-1/6-phosphate): 0.0000
Log2(fold change) of glutamate (metabolite glutamate): 0.0411
Log2(fold change) of glutamine (metabolite glutamine): 0.1003
Log2(fold change) of glutathione (metabolite glutathione): 0.0000
Log2(fold change) glutathione disulfide (metabolite glutathione disulfide): -0.3466
Log2(fold change) glycerate (metabolite glycerate): 0.0000
Log2(fold change) guanine (metabolite guanine): 0.0000
Log2(fold change) guanosine (metabolite guanosine): -0.2330
Log2(fold change) histidine (metabolite histidine): 0.0507
Log2(fold change) homocysteic acid (metabolite homocysteic acid): 0.0000
Log2(fold change) hydroxyphenylpyruvate (metabolite hydroxyphenylpyruvate): 0.0000
Log2(fold change) hydroxyproline/Aminolevulinate (metabolite hydroxyproline/Aminolevulinate): 0.0365
Log2(fold change) hypoxanthine (metabolite hypoxanthine): 0.0000
Log2(fold change) indole (metabolite indole): 0.0000
Log2(fold change) inosine (metabolite inosine): 0.4396
Log2(fold change) isoleucine (metabolite isoleucine): 0.0740
Log2(fold change) lactate (metabolite lactate): 0.1682
Log2(fold change) leucine (metabolite leucine): 0.0991
Log2(fold change) lysine (metabolite lysine): 0.0854
Log2(fold change) malate (metabolite malate): -0.0032
Log2(fold change) maleic acid (metabolite maleic acid): 0.0142
Log2(fold change) methionine (metabolite methionine): 0.2846
Log2(fold change) myo-inositol (metabolite myo-inositol): 0.0000
Log2(fold change) nicotinamide mononucleotide (metabolite nicotinamide mononucleotide): -0.0133
Log2(fold change) nicotinate (metabolite nicotinate): 0.1646
Log2(fold change) ornithine (metabolite ornithine): 0.0000
Log2(fold change) orotate (metabolite orotate): 0.0201
Log2(fold change) orotidine-5'-phosphate (metabolite orotidine-5'-phosphate): 0.1401
Log2(fold change) oxaloacetate (metabolite oxaloacetate): 0.0000
Log2(fold change) p-aminobenzoate (metabolite p-aminobenzoate): 0.0000
Log2(fold change) p-hydroxybenzoate (metabolite p-hydroxybenzoate): 0.0000
Log2(fold change) pantothenate (metabolite pantothenate): 0.1559
Log2(fold change) phenylalanine (metabolite phenylalanine): 0.0217
Log2(fold change) phenylpyruvate (metabolite phenylpyruvate): 0.0000
Log2(fold change) phosphoenolpyruvate (metabolite phosphoenolpyruvate): 0.1068
Log2(fold change) prephenate (metabolite prephenate): 0.0000
Log2(fold change) proline (metabolite proline): 0.0000
Log2(fold change) pyridoxine (metabolite pyridoxine): 0.3553
Log2(fold change) pyruvate (metabolite pyruvate): -0.3114
Log2(fold change) riboflavin (metabolite riboflavin): 0.0000
Log2(fold change) ribose (metabolite ribose): 0.0000
Log2(fold change) ribose-phosphate (metabolite ribose-phosphate): 0.0000
Log2(fold change) ribulose-5-phosphate (metabolite ribulose-5-phosphate): 0.1038
Log2(fold change) serine (metabolite serine): 0.2426
Log2(fold change) sn-glycerol-3-phosphate (metabolite sn-glycerol-3-phosphate): 0.0527
Log2(fold change) succinate/Methylmalonic acid (metabolite succinate/Methylmalonic acid): -0.0206
Log2(fold change) succinyl-CoA/methylmalonyl-CoA (metabolite succinyl-CoA/methylmalonyl-CoA): 0.0000
Log2(fold change) taurine (metabolite taurine): 0.3032
Log2(fold change) thiamine (metabolite thiamine): 0.1205
Log2(fold change) threonine/homoserine (metabolite threonine/homoserine): 0.0762
Log2(fold change) thymidine (metabolite thymidine): 0.0000
Log2(fold changes) thymine (metabolite thymine, log2 fold change): 0.0000
Log2(fold changes) trehalose-6-Phosphate (metabolite trehalose-6-Phosphate, log2 fold change): 0.0000
Log2(fold changes) tryptophan (metabolite tryptophan, log2 fold change): -0.1782
Log2(fold changes) tyrosine (metabolite tyrosine, log2 fold change): 0.0328
Log2(fold changes) uridine (metabolite uridine, log2 fold change): 0.0000
Log2(fold changes) valine (metabolite valine, log2 fold change): 0.0750
Log2(fold changes) xanthine (metabolite xanthine, log2 fold change): 0.0000
Log2(fold changes) xanthosine-5-phosphate (metabolite xanthosine-5-phosphate, log2 fold change): 0.2017
Log2(fold changes) xanthosine (metabolite xanthosine, log2 fold change): -0.1521
Log2(fold changes) xylose (metabolite xylose, log2 fold change): 0.0000
